{
  "source": "patent US20230134843A1",
  "about": "“TREATMENT OF STEM CELL DEFICIENCY” (OSPEDALE SAN RAFFAELE S.R.L., priority 2020, published 2023)",
  "key": {"[1]": {"molecular_target": "T1, NK1R (Mus musculus, UniProt P30548)", "T1 construct": "NK1R is expressed by both corneal epithelial and stem cell-like cells; from tissue; host or cells: cornea / ocular surface of live C57BL6/N mice (topical dosing in vivo)", "T1 sequence (P30548 whole entry)": "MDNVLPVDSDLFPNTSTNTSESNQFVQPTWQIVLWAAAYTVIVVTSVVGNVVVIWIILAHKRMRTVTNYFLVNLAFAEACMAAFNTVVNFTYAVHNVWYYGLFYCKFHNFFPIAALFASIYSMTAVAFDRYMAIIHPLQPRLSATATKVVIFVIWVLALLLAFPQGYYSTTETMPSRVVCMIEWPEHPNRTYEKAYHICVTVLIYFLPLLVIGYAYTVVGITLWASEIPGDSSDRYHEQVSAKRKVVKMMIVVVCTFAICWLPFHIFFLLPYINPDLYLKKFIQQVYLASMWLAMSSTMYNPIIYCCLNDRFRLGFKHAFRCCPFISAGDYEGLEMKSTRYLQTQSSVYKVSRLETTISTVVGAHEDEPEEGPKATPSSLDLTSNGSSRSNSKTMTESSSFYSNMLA", "test": "Epithelial wound closure by corneal fluorescein staining, stem cell deficiency model (Example 2)", "assay_type": "in vivo, mice", "from_the_text": "Eight-week-old male mice C57BL6/N (Charles River, Calco, Italy) (WT mice, n=18) and Tac1-deficient B6.Cg-Tac1tm1Bbm/J (Jackson Laboratories, Bar Harbor, Me., USA) (TAC1-KO mice, n=18) were used in all experiments. TAC1-KO mice are homozygous null for the Tac1 gene. […] The corneal thickness and transparency as well as the corneal nerve length are similar to C57BL/6 mice [Barbariga M, Rabiolo A, Fonteyne P, Bignami F, Rama P, Ferrari G. The effect of aging on nerve morphology and substance P expression in mouse and human corneas. Investig Ophthalmol Vis Sci 2018; 59:5329-35. https://doi.org/10.1167/iovs.18-24707.]. […]\nEvery day after disepithelization, in vivo corneal photographs were taken using a digital camera (EOS 30D; Canon, Tokyo, Japan) attached to a slit-lamp microscope (Photoslitmap 40 SL-P; Zeiss, Oberkochen, Germany) to assess corneal condition. Corneal opacity was evaluated using a grading score (from 0-4; 0=completely clear, 4=completely opaque) previously described [Yoeruek E, Deuter C, Gieselmann S, Saygili O, Spitzer M S, Tatar O, et al. Long-term visual acuity and its predictors after cataract surgery in patients with uveitis. […] The percentage of green fluorescent area on the total corneal area was evaluated by analyzing images by Image J software (National Institutes of Health, Bethesda, Md., USA)."}, "[2]": {"molecular_target": "T1, NK1R", "test": "Epithelial corneal damage by corneal fluorescein staining, acute ocular GVHD mouse model", "assay_type": "in vivo, mice", "conditions": "Fosaprepitant 10 mg/mL topically six times a day (BM+T+Fosa); from day 14, p<0.05", "procedure": "10-week-old male BALB/C and C57BL/6N mice (Charles River Laboratory, Lecco, Italy) were used for all the experiments (n=5/each group). All mice were free from ocular surface disease at baseline. The housing conditions were controlled (temperature 22° C., light from 07:00-19:00, humidity 50%-60%), and fresh food and water were freely available. The animals were monitored 3 times per week for 28 days post-transplantation for in vivo slit-lamp microscopy imaging, ocular surface score and systemic GVHD score (FIG. 11A). Carbon dioxide inhalation and subsequent cervical dislocation were applied to euthanize the animals. All the experiments were approved by the Animal Care and Use Committee of the IRCCS San Raffaele Scientific Institute, in accordance with the ARVO Statement for the Use of Animals in Ophthalmic and Vision Research.\nAllogenic BMT was conducted using the C57BL/6N and BALB/c mice as transplant donors and recipients, respectively. […]\nClinical examination was performed to evaluate the ocular disease progression. […] Tear production was quantified with phenol red thread test (Zone-Quick; Lacrimedics, Eastsound, Wash., USA). […] The length of the moistened thread was measured in both eyes and the average was used as lacrimal tear volume for comparative analysis."}},
  "note": "Entries after “also recorded” stand apart in the source; their conditions may differ.",
  "data": [
    {"smiles": "C[C@@H](O[C@H]1OCCN(Cc2nc(=O)n(P(=O)(O)O)[nH]2)[C@H]1c1ccc(F)cc1)c1cc(C(F)(F)F)cc(C(F)(F)F)c1", "note": "[Fosaprepitant, [3-{[(2R,3S)-2-[(1R)-1-[3,5-bis(trifluoromethyl)phenyl]ethoxy]-3-(4-fluorophenyl)morpholin-4-yl]methyl}-5-oxo-2H-1,2,4-triazol-1-yl]phosphonic acid]", "values": [
      {"measurement": "wound closure compared to WT", "setting": "[1]; Fosaprepitant 0.1 mg/mL (FOSA 0.1) topically 4 times/day for 16 days", "result": "did not show any improvement; also recorded: no improvement"},
      {"measurement": "wound closure rate compared to WT", "setting": "[1]; Fosaprepitant 1 mg/mL (FOSA 1) topically 4 times/day for 16 days, from day five, p<0.05", "result": "significant improvement; also recorded: significant faster epithelial wound closure"},
      {"measurement": "corneal fluorescein staining compared to BM+T mice", "setting": "[2]", "result": "reduction; also recorded: significantly reduced"}
    ]}
  ]
}
